Values quoted from earlier work as cited in patent publication US12201732B2, “Transdermal patches for hangover minimization and/or recocery, and/or sleep improvement” (GameChanger Patch Co., priority 2020, dated 2025).

Key:
[1] = recent study
[2] = oral supplementation

Row | SMILES | effect on hangover [1] | share metabolized by the human stomach in the first pass [2]
1 | N[C@@H](CS)C(=O)O [L-cysteine] | mitigate hangover effects | –
2 | N[C@@H](CCC(=O)N[C@@H](CS)C(=O)NCC(=O)O)C(=O)O [glutathione] | – | ≥ 90%
